Laboratory results reported in ChEMBL document CHEMBL1155022, “Aerucyclamides A and B: isolation and synthesis of toxic ribosomal heterocyclic peptides from the cyanobacterium Microcystis aeruginosa PCC 7806” (J Nat Prod, 2008).

Assay: Acute grazer toxicity against Thamnocephalus platyurus after 24 hrs
Format: organism-based
Details: in vivo

## CC[C@H](C)[C@@H]1NC(=O)[C@H]2CSC(=N2)[C@@H]([C@@H](C)CC)NC(=O)c2csc(n2)CNC(=O)[C@H]2N=C1O[C@@H]2C [AERUCYCLAMIDE A]
  LC50 at 24 h: 30.5 µM

## CC[C@H](C)[C@@H]1NC(=O)c2csc(n2)[C@@H]([C@@H](C)CC)NC(=O)c2csc(n2)CNC(=O)[C@H]2N=C1O[C@@H]2C [AERUCYCLAMIDE B]
  LC50 at 24 h: 33.8 µM
